In the supplement of paper PMC10702517:
± gives the standard deviation.

Experiment: chemical recovery from spiked human plasma; higher = better extraction
Details: pooled human plasma
[1] = extraction method: PES+SPE (3 d PDMS equilibration then HLB SPE)
[2] = extraction method: SPE only (HLB 96-well)
[3] = extraction method: solvent precipitation (ACN + hexane)
[4] = extraction method: SPE only (HLB 96-well), PES comparison experiment

Compound	chemical recovery [1] [%]	chemical recovery [2] [%]	chemical recovery [3] [%]	chemical recovery [4] [%]
CC1(C)[C@@H](O[C@H]2O[C@H](C(=O)O)[C@@H](O)[C@H](O)[C@H]2O[C@@H]2O[C@H](C(=O)O)[C@@H](O)[C@H](O)[C@H]2O)CC[C@]2(C)[C@H]3C(=O)C=C4[C@@H]5C[C@@](C)(C(=O)O)CC[C@]5(C)CC[C@@]4(C)[C@]3(C)CC[C@@H]12 [Glycyrrhizin]	14.5 ± 4.5	16.6 ± 2.5	0.719 ± 0.66	
N[C@@H](Cc1cc(I)c(Oc2ccc(O)c(I)c2)c(I)c1)C(=O)O [3,3',5-Triiodo-L-thyronine]			56.3 ± 2.7	
NNc1ccccn1 [2-Hydrazinopyridine]	0.622 ± 0.11	9.35 ± 5		
CC(C)(C)CC(C)(C)c1cc(-n2nc3ccccc3n2)c(O)c(C(C)(C)c2ccccc2)c1 [UV-928]		0.72 ± 0.29		
CC1(C)CC(NC(=O)c2cccc(C(=O)NC3CC(C)(C)NC(C)(C)C3)c2)CC(C)(C)N1 [Nylostab-S-EED]			70.4 ± 5.2	
OCCN1CCN(CCC=C2c3ccccc3Sc3ccc(C(F)(F)F)cc32)CC1 [Flupentixol]			51.7 ± 2.5	
Cc1cc(N)c2ccccc2n1 [4-Amino-2-methylquinoline]	27.3 ± 3.6	32.7 ± 2.9	73.8 ± 2.2	
CC(C)c1ccc2c(c1)CC[C@H]1[C@](C)(C(=O)O)CCC[C@]21C [Dehydroabietic-acid]		29.7 ± 1.9		
C[C@]12C=CC3=C4CCC(=O)C=C4CCC3C1CC[C@@H]2O (some centres undefined) [Trenbolone]				47.4 ± 6.8
CCc1cc(Cc2cc(CC)cc(C(C)(C)C)c2O)c(O)c(C(C)(C)C)c1 [2,2'-Methylenebis(ethyl-6-tert-butylphenol)]		3.63 ± 3.5	64.9 ± 8.7	
NC(=O)C1(N2CCCCC2)CCN(CCCC(=O)c2ccc(F)cc2)CC1 [Pipamperone]	4.98 ± 1.1	28.3 ± 3.7	71.4 ± 4.4	
CCN(CC)CC(=O)Nc1c(C)cccc1C [Lidocaine]	1.08 ± 0.9	37.5 ± 7.4	67.9 ± 4.2	42.3 ± 6.8
O=S(=O)(O)c1ccc2ccc(S(=O)(=O)O)cc2c1 [2,7-Naphthalenedisulfonic acid]		60.6 ± 17	72.8 ± 11	
Cc1ccc2ccccc2c1 [2-Methylnaphthalene]		2.91 ± 1.5		
CN(C)C(=O)NC1CCCCC1 [3-Cyclohexyl-1,1-dimethylurea]	28.9 ± 9.2	35.4 ± 2.2	61.2 ± 1.1	
CC(C)C1C2CCC1c1c(NC(=O)c3cn(C)nc3C(F)F)cccc12 (centres undefined) [Isopyrazam]	56.7 ± 6.3	42.1 ± 4.9	72.1 ± 4.6	
O=C1C2CC3C1C1(Cl)C(Cl)C4(Cl)C2C3C1(Cl)C4(Cl)Cl (centres undefined) [Endrin ketone]		7.89 ± 2.1	15.3 ± 1.4	
CC(=O)N1CCOCC1 [4-Acetylmorpholine]		3.35 ± 3.7		
CC12CC1(C)C(=O)N(c1cc(Cl)cc(Cl)c1)C2=O (centres undefined) [Procymidone]		18.9 ± 2.2		
Cc1ccc(N)cc1Cl [3-Chloro-4-methylaniline]	56.7 ± 3.6	45.3 ± 2.8	76.7 ± 4.1	
Nc1ccc(Nc2ccccc2)cc1 [4-Aminodiphenylamine]	1.74 ± 1.1	1.91 ± 0.31		
COP(=O)(NC(C)=O)SC (centres undefined) [Acephate]	3.58 ± 0.54	5.48 ± 5.2		
CCCCCC(CCC)COC(=O)c1ccccc1C(=O)OCC(CCC)CCCCC (centres undefined) [Bis(2-propylheptyl)-phthalate]			70.9 ± 7.4	
CC(C)(C)C(O)(CCc1ccc(Cl)cc1)Cn1cncn1 (centres undefined) [Tebuconazole]			77.8 ± 3.1	

Compound	chemical recovery [1] [%]	chemical recovery [2] [%]	chemical recovery [3] [%]	chemical recovery [4] [%]
O=C(O)/C=C/c1c[nH]c2ccccc12 [Indole-3-acrylic-acid]	37.5 ± 5	45.2 ± 13		
O=C(O)C(F)(OC(F)(F)C(F)(F)C(F)(F)F)C(F)(F)F (centres undefined) [HFPO-DA]		30.7 ± 3	67.4 ± 3.1	
Nc1ccc(S(=O)(=O)Nc2nccs2)cc1 [Sulfathiazole]		31.1 ± 2.5	69.2 ± 3.2	51.1 ± 6.3
CN1CCN2c3ncccc3Cc3ccccc3C2C1 (centres undefined) [Mirtazapine]	0.274 ± 0.11	30.4 ± 2.3	69.4 ± 3.5	29.9 ± 9.5
CCC(Cc1ccccc1)(C(=O)c1ccc(N2CCOCC2)cc1)N(C)C (centres undefined) [Irgacure-369]	19.4 ± 3.7	36.8 ± 1.1	77.2 ± 5.5	
C[C@@]12CCC[C@H]1[C@@H]1CC[C@H]3C[C@@H](O)CC[C@]3(C)[C@H]1CC2 [Androstanol]		1.3 ± 0.4	44.7 ± 6	
COc1c(Cl)ccc(Cl)c1C(=O)O [Dicamba]	42.3 ± 2.6	37.9 ± 3.7		
Cc1nnc(-c2ccccc2)c(=O)n1N [Metamitron]	53 ± 4.2	46.3 ± 4.3	70.3 ± 0.41	92.5 ± 14
O=C(O)C(F)(F)C(F)(F)C(F)(F)C(F)(F)F [Perfluoropentanoic-acid]	32.1 ± 3.4	31.1 ± 3.3	78.1 ± 8.5	
Cc1ccc2cc(C)ccc2c1 [2,6-Dimethylnaphthalene]		0.083 ± 0.072		
Oc1ccc(Cl)cc1O [3,4-Dihydroxy-chlorobenzene]	5.54 ± 1.6	39.4 ± 4.7		
Nc1ccc(Oc2ccc(N)cc2)cc1 [4,4'-Oxydianiline]	0.849 ± 0.6	8.07 ± 0.83	26.3 ± 9	
Cc1cccc(C)c1N(Cn1cccn1)C(=O)CO [Metazachlor-2-hydroxy]	49 ± 6.5	40.1 ± 3.3	73.7 ± 3.7	
N[C@@H](CC(=O)N1CCn2c(nnc2C(F)(F)F)C1)Cc1cc(F)c(F)cc1F [Sitagliptin]	33.4 ± 2.7	30 ± 3.4	72.7 ± 3.6	
CC1(C)O[C@@H]2C[C@H]3[C@@H]4CCC5=CC(=O)C=C[C@]5(C)[C@@]4(F)[C@@H](O)C[C@]3(C)[C@]2(C(=O)CO)O1 [Triamcinolone acetonide]				47.3 ± 4.9
O=C(O)C(F)(F)C(F)(F)C(F)(F)C(F)(F)C(F)(F)C(F)(F)C(F)(F)C(F)(F)F [Perfluorononanoic-acid]		8.32 ± 1.8	66.3 ± 5.1	
O=S(=O)(O)C(F)(F)C(F)(F)C(F)(F)C(F)(F)C(F)(F)C(F)(F)F [Perfluorohexanesulfonic-acid]	40.9 ± 4.1	34.4 ± 2.7		
c1ccc2cc3c(cc2c1)sc1ccccc13 [Benzo[b]naphtho(2,3-d)thiophene]	61.7 ± 20	0.871 ± 0.26	63.3 ± 6.8	
Nc1ccc2c(n1)[nH]c1ccccc12 [2-Amino-9H-pyrido[2,3-b]indole-(AalphaC)]	17.4 ± 2.8	32.5 ± 2.4	62.4 ± 5.3	
C[C@@H](O)CCCCn1c(=O)c2c(ncn2C)n(C)c1=O [Lisofylline]	42.8 ± 3.6	35.7 ± 3.2	76.1 ± 3.5	
CNC(=O)c1ccccc1 [N-Methylbenzamide]	35 ± 8.6	38.2 ± 3	88 ± 3.1	
Oc1ccc(Cc2ccc(O)cc2)cc1 [Bisphenol-F]	70.2 ± 3.4	56 ± 2.6	72.6 ± 3.6	
O=C(O)C(F)(F)C(F)(F)C(F)(F)C(F)(F)C(F)(F)C(F)(F)C(F)(F)C(F)(F)C(F)(F)C(F)(F)C(F)(F)C(F)(F)C(F)(F)F [Perfluorotetradecanoic acid]			41.3 ± 11	
Cc1cc2ccccc2cc1C [2,3-Dimethylnaphthalene]		0.0627 ± 0.11		
